Data: ChEMBL document CHEMBL3244333, “2-Acetylpyridine thiosemicarbazones. 2. N4,N4-Disubstituted derivatives as potential antimalarial agents” (J Med Chem, 1979)
Calls of active or inactive are those of the source. The calls are words filed in the database; no cut-off is given here.

What was measured:
Mus musculus [1] = experiment: Toxicity in Plasmodium berghei KBG 173 infected mouse at 40 mg/kg; assay type: organism-based; set-up: dose 40 mg/kg; details: in vivo
Plasmodium berghei [2] = experiment: Antimalarial activity against Plasmodium berghei KBG 173 infected in mouse assessed as increase of mean survival time at 640 mg/kg; assay type: functional
Plasmodium berghei [3] = experiment: Antimalarial activity against Plasmodium berghei KBG 173 infected in mouse assessed as increase of mean survival time at 160 mg/kg; assay type: functional
Plasmodium berghei [4] = experiment: Antimalarial activity against Plasmodium berghei KBG 173 infected in mouse assessed as cured animal from parasite infection at 160 mg/kg; assay type: functional, organism-based; set-up: dose 160 mg/kg
Plasmodium berghei [5] = experiment: Antimalarial activity against Plasmodium berghei KBG 173 infected in mouse assessed as increase of mean survival time at 40 mg/kg; assay type: functional
Mus musculus [6] = experiment: Toxicity in Plasmodium berghei KBG 173 infected mouse at 640 mg/kg; assay type: organism-based; set-up: dose 640 mg/kg; details: in vivo
Plasmodium berghei [7] = experiment: Antimalarial activity against Plasmodium berghei KBG 173 infected in mouse assessed as cured animal from parasite infection at 40 mg/kg; assay type: functional, organism-based; set-up: dose 40 mg/kg
Mus musculus [8] = experiment: Toxicity in Plasmodium berghei KBG 173 infected mouse at 160 mg/kg; assay type: organism-based; set-up: dose 160 mg/kg; details: in vivo
Mus musculus [9] = experiment: Toxicity in Plasmodium berghei KBG 173 infected mouse at 320 mg/kg; assay type: organism-based; set-up: dose 320 mg/kg; details: in vivo
Plasmodium berghei [10] = experiment: Antimalarial activity against Plasmodium berghei KBG 173 infected in mouse assessed as cured animal from parasite infection at 320 mg/kg; assay type: functional, organism-based; set-up: dose 320 mg/kg
Plasmodium berghei [11] = experiment: Antimalarial activity against Plasmodium berghei KBG 173 infected in mouse assessed as increase of mean survival time at 80 mg/kg; assay type: functional
Plasmodium berghei [12] = experiment: Antimalarial activity against Plasmodium berghei KBG 173 infected in mouse assessed as cured animal from parasite infection at 640 mg/kg; assay type: functional, organism-based; set-up: dose 640 mg/kg
Plasmodium berghei [13] = experiment: Antimalarial activity against Plasmodium berghei KBG 173 infected in mouse assessed as increase of mean survival time at 320 mg/kg; assay type: functional
Mus musculus [14] = experiment: Toxicity in Plasmodium berghei KBG 173 infected mouse at 80 mg/kg; assay type: organism-based; set-up: dose 80 mg/kg; details: in vivo
Plasmodium berghei [15] = experiment: Antimalarial activity against Plasmodium berghei KBG 173 infected in mouse assessed as cured animal from parasite infection at 80 mg/kg; assay type: functional, organism-based; set-up: dose 80 mg/kg

SMILES	Activity (Mus musculus [1])	Survival (Plasmodium berghei [2]) [days]	Survival (Plasmodium berghei [3]) [days]	Activity (Plasmodium berghei [4])	Survival (Plasmodium berghei [5]) [days]	Activity (Mus musculus [6])	Activity (Plasmodium berghei [7])	Activity (Mus musculus [8])	Activity (Mus musculus [9])	Activity (Plasmodium berghei [10])	Survival (Plasmodium berghei [11]) [days]	Activity (Plasmodium berghei [12])	Survival (Plasmodium berghei [13]) [days]	Activity (Mus musculus [14])	Activity (Plasmodium berghei [15])
C/C(=N/NC(=S)N1CCC2(CC1)OCCO2)c1ccccn1	Toxic	0	0	Active	0	Toxic	Active	Toxic							
C/C(=N/NC(=S)N1CCN(C)CC1)c1ccccn1	Toxic	0	0	Active	0	Toxic	Active	Toxic							
C/C(=N/NC(=S)N1CCN(c2cccc(C(F)(F)F)c2)CC1)c1ccccn1				Active	0.1	Toxic			Toxic	Active	2.4	Active			
C/C(=N/NC(=S)N(C)CCc1ccccn1)c1ccccn1	Toxic	0	0	Active	1.7	Toxic		Toxic	Toxic	Active	3.3		6.7		
CCN(CC)C(=S)N/N=C(/C)c1ccccn1		0		Active	7.2	Toxic	Active	Toxic				Active		Toxic	Active
C/C(=N/NC(=S)N1C(C)CCC1C)c1ccccn1 (configuration not stated)		0		Active	4.7	Toxic		Toxic	Toxic	Active		Active	0		Active
C/C(=N/NC(=S)N1CCCN(C)CC1)c1ccccn1	Toxic	0	0.8		0.8	Toxic		Toxic							
C/C(=N/NC(=S)N(C)C1CCCC1)c1ccccn1		0		Active	1.5	Toxic			Toxic	Active		Active	6		Active
C/C(=N/NC(=S)N1CCCC1)c1ccccn1	Toxic	0	0	Active	8.9	Toxic	Active	Toxic				Active			
C/C(=N/NC(=S)N1CCCCCC1)c1ccccn1				Active	6.2	Toxic	Active	Toxic	Toxic	Active		Active			Active
CCCN(CCC)C(=S)N/N=C(/C)c1ccccn1	Toxic	3	0	Active	0		Active	Toxic							
C/C(=N/NC(=S)N1CC(C)CC(C)C1)c1ccccn1 (configuration not stated)		-0.4		Active	5.6	Toxic			Toxic	Active			0		Active
CCCCN(C)C(=S)N/N=C(/C)c1ccccn1		0	6.9	Active	5.9	Toxic		Toxic	Toxic	Active	8.1	Active	0		Active
C/C(=N/NC(=S)N1CC2CCC(CC2)C1)c1ccccn1		0.4		Active		Toxic	Active						0.2		Active
C/C(=N/NC(=S)N1C(C)CCCC1C)c1ccccn1 (configuration not stated)			6.3		0.5	Toxic				Active	1.6	Active			
C/C(=N/NC(=S)N1CC=C(c2ccccc2)CC1)c1ccccn1				Active	0.8					Active	2	Active			
CCOC(=O)N1CCN(C(=S)N/N=C(/C)c2ccccn2)CC1	Toxic	0	0	Active		Toxic	Active	Toxic				Active			
C/C(=N/NC(=S)N1CCN(c2ccccn2)CC1)c1ccccn1 [listing 1 of 2 here]		0				Toxic			Toxic				0.7		
C/C(=N/NC(=S)N1CCC(Cc2ccccc2)CC1)c1ccccn1				Active	0.4					Active	2.8	Active			
C/C(=N/NC(=S)N(C)Cc1ccccc1)c1ccccn1				Active	4	Toxic		Toxic	Toxic	Active		Active		Toxic	Active
C/C(=N/NC(=S)N(C)C)c1ccccn1	Toxic	0	0	Active	0.5	Toxic		Toxic				Active			
C/C(=N/NC(=S)N1CCC(O)CC1)c1ccccn1	Toxic	0.6	0	Active	-0.1	Toxic		Toxic							
C/C(=N/NC(=S)N1CCN(c2ccccc2)CC1)c1ccccn1		-0.4		Active	7	Toxic	Active		Toxic		11.7	Active	-0.1		Active
C/C(=N/NC(=S)N(C)C1CCCCCCC1)c1ccccn1		12.1		Active	3.2	Toxic				Active	9.6	Active			Active
C/C(=N/NC(=S)N1CC(C)OC(C)C1)c1ccccn1 (configuration not stated)	Toxic	0	0	Active		Toxic	Active	Toxic				Active			
C/C(=N/NC(=S)N1CCN(Cc2ccccc2)CC1)c1ccccn1			5.6		1.6					Active	4.4	Active			
C/C(=N/NC(=S)N1CCN(c2ccccn2)CC1)c1ccccn1 [listing 2 of 2 here]				Active			Active			Active		Active			Active
